Data as given in patent US8017792B2, “1-thio-D-glucitol derivatives” (Taisho Pharmaceutical Co., Ltd., priority 2005, dated 2011).

Legend:
[1] = system: rat kidney brush border membrane vesicles (BBMV); assay: Glucose uptake inhibition in rat kidney brush border membrane vesicles (Test Example 1); assay type: biochemical; conditions: D-[6-3H]glucose 0.1 mM, 37° C., five seconds, read-out: IC50 (concentration at which glucose uptake was inhibited by 50%)
Protocol: After 50 μL of a suspension (protein concentration: 4 mg/mL) of rat kidney brush border membrane vesicles (brush border membrane […]: BBMV) prepared following the method described in a document (Anal. Biochem., Vol. 201, Clause 301, 1984) was preincubated at 37° C. for two minutes, 150 μL of a reaction mixture which was a mixture of a test compound dissolved in DMSO (DMSO final concentration: 1%), 100 mM mannitol, 100 mM NaSCN or KSCN, 10 mM HEPES/Tris pH 7.4, D-glucose (final concentration: 0.1 mM) and 1 μCi of D-[6-^3H] glucose (Amersham) was added to this. After performing a reaction at 37° C. for five seconds, 1 mL of an ice cooled reaction terminating solution (150 mM NaCl, 10 mM HEPES/Tris pH 7.4, 0.3 mM phlorizin) was added to the reaction mixture to terminate the reaction, and BBMV was immediately separated by rapid filtration using a membrane filter (HAWP02500 having a pore size of 0.45 μm, Millipore). The membrane filter was washed three times with 4.5 mL of the ice cooled reaction terminating solution. After the membrane was dried sufficiently, radioactivity was measured with a liquid scintillation counter (Beckman) to quantify the amount of glucose taken in BBMV on the membrane filter.

[2] = biological target: T1, Human SGLT2 (Homo sapiens, UniProt P31639); assay: Sodium-dependent sugar uptake inhibition test in CHO-K1 cells stably expressing human SGLT2 (Test Example 2); assay type: cell-based; conditions: for IC50: CHO-K1 cells, [14C]methyl-α-D-glucopyranoside 1 mM, 37° C., one hour; for SGLT1/SGLT2: ratio of IC50 human SGLT1 to IC50 human SGLT2
T1 construct: expressed in transfected cells; host or cells: CHO-K1
T1 sequence (P31639 1-672): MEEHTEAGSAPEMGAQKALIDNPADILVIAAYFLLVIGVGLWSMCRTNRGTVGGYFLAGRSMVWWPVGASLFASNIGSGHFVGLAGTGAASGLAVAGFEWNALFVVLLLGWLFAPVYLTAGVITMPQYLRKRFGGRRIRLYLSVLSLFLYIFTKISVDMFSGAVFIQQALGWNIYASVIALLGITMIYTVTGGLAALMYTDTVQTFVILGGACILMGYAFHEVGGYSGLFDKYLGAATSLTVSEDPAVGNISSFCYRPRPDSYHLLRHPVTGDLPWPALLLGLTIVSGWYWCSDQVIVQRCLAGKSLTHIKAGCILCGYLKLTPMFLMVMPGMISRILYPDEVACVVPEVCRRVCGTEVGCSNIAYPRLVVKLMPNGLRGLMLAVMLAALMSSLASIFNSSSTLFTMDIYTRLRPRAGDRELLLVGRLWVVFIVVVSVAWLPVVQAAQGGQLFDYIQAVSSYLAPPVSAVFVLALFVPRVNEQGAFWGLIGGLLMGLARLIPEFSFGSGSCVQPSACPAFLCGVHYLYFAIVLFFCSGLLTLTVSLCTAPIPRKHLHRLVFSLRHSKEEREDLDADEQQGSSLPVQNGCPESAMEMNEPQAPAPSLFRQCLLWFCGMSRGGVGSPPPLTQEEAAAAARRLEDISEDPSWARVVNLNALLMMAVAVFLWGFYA
Protocol: (§1) Human SGLT1 sequence (NM_000343) was reverse-transcripted from human small intestinal mRNA, then amplified, and then introduced into pCMV-tag5A from Stratagene Corporation. Human SGLT2 sequence (NM_003041) was prepared from human nephric mRNA as with the above method, and then introduced into pcDNA3.1+hygro from Invitrogen Corporation. Each cloned sequence was confirmed to be identical with the reported sequence.
(§2) CHO-K1 cells were transfected with the human SGLT1 and human SGLT2 expression vectors using Lipofectamine 2000 (Invitrogen Corporation). SGLT expression cells were cultured in the presence of geneticin (SGLT1) or hygromycin B (SGLT2) of the concentration of 500 μg/mL to select resistant strains. Cells were obtained using sugar uptake specific activity as an index in the following system.
(§3) Cells stably expressing human SGLT1 and human SGLT2 were used in the sodium-dependent sugar uptake activity inhibition test. Cells were incubated in 1 mL of a pretreatment buffer solution (140 mM choline chloride, 2 mM KCl, 1 mM CaCl2, 1 mM MgCl2, 10 mM HEPES/5 mM Tris, pH 7.4) for 20 minutes. The pretreatment buffer solution was removed and 200 μL of an uptake buffer containing test compounds (methyl-α-D-glucopyranoside containing [^14C]methyl-α-D-glucopyranoside (0.1 mM for SGLT1 inhibition, 1 mM for SGLT2 inhibition), 140 mM NaCl, 2 mM KCl, 1 mM CaCl2, 1 mM MgCl2, 10 mM HEPES/5 mM Tris, pH 7.4) were added, and uptake reaction was performed at 37° C. for 30 minutes (SGLT1) or for one hour (SGLT2). After the reaction, cells were washed with 1 mL of a washing buffer (10 mM methyl-α-D-glucopyranoside, 140 mM choline chloride, 2 mM KCl, 1 mM CaCl2, 1 mM MgCl2, 10 mM HEPES/5 mM Tris, pH 7.4) twice and dissolved in 400 μL of 0.2 M NaOH solution. After Aquazole 2 (Perkin Elmer Corporation) was added and mixed well, radioactivity was measured with a liquid scintillation counter (Beckman Coulter Corporation). A buffer for uptake which contained no test compound was prepared as a control group. Another buffer solution for uptake containing choline chloride in place of NaCl was also prepared for basic uptake.

[3] = biological target: T2, Human SGLT1 (Homo sapiens, UniProt P13866); assay: Sodium-dependent sugar uptake inhibition test in CHO-K1 cells stably expressing human SGLT1 (Test Example 2); assay type: cell-based; conditions: [14C]methyl-α-D-glucopyranoside 0.1 mM, 37° C., 30 minutes
T2 construct: expressed in transfected cells; host or cells: CHO-K1
T2 sequence (P13866 1-664): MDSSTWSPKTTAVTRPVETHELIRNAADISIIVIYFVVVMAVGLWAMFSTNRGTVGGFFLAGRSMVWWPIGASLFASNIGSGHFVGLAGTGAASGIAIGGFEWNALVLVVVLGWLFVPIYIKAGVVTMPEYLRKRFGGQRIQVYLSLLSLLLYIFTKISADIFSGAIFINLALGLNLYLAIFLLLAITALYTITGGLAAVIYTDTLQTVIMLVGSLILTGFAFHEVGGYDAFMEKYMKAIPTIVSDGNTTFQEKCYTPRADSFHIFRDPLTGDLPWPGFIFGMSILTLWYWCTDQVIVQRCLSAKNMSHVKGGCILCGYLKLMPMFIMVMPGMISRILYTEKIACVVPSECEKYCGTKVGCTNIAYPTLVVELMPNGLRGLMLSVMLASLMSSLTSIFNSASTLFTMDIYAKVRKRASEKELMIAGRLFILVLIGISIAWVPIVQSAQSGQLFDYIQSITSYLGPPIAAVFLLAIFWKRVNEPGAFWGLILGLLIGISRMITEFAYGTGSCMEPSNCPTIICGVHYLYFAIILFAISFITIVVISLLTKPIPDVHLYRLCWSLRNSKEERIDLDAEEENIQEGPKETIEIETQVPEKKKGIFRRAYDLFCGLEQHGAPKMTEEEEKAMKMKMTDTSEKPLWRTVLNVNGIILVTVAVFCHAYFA
Protocol: as §1, §2, §3

CCOc1ccc(Cc2cc([C@@H]3S[C@H](CO)[C@@H](O)[C@H](O)[C@H]3O)ccc2Cl)cc1 [Compound 76, (1S)-1,5-Anhydro-1-[4-chloro-3-(4-ethoxybenzyl)phenyl]-1-thio-D-glucitol]
IC50 [1]: 320 nM | IC50 [2]: 80 nM | SGLT1/SGLT2 [2]: 14.6

COc1ccc([C@@H]2S[C@H](CO)[C@@H](O)[C@H](O)[C@H]2O)cc1Cc1cc2ccccc2s1 [Compound 127, (1S)-1,5-Anhydro-1-[3-[(1-benzothien-2-yl)methyl]-4-methoxyphenyl]-1-thio-D-glucitol]
IC50 [1]: 350 nM | IC50 [2]: 1120 nM | SGLT1/SGLT2 [2]: 0.6 | IC50 [3]: 700 nM | melting point: 91 to 105 °C

CCOc1ccc(Cc2cccc([C@@H]3S[C@H](CO)[C@@H](O)[C@H](O)[C@H]3O)c2)cc1 [Compound 75, (1S)-1,5-Anhydro-1-[3-(4-ethoxybenzyl)phenyl]-1-thio-D-glucitol]
IC50 [1]: 1600 nM | IC50 [2]: 2830 nM | SGLT1/SGLT2 [2]: 9.7 | IC50 [3]: 27400 nM

CCOc1ccc(Cc2ccc(O)c([C@@H]3S[C@H](CO)[C@@H](O)[C@H](O)[C@H]3O)c2)cc1 [Compound 79, (1S)-1,5-Anhydro-1-[3-(4-ethoxybenzyl)-6-hydroxyphenyl]-1-thio-D-glucitol]
IC50 [1]: 220 nM | IC50 [2]: 370 nM | SGLT1/SGLT2 [2]: 7.2 | IC50 [3]: 2700 nM

OC[C@H]1S[C@@H](c2ccc(Cl)c(Cc3cc4ccccc4s3)c2)[C@H](O)[C@@H](O)[C@@H]1O [Compound 128, (1S)-1,5-Anhydro-1-[3-[(1-benzothien-2-yl)methyl]-4-chlorophenyl]-1-thio-D-glucitol]
IC50 [1]: 790 nM | IC50 [2]: 140 nM | SGLT1/SGLT2 [2]: 4.4 | IC50 [3]: 600 nM | melting point: 105 to 115 °C
